Patent publication US8933122B2, “Use of cationic surfactants as sporicidal agents” (Laboratorios Miret, S.A., priority 2008, dated 2015)

How the values were obtained:
[1] = system: endospores from Bacillus subtilis ATCC 6633; assay: Sporicidal activity, quantitative suspension test EN 13704:2002 (Example 1); type: cell-based; details: 20° C.; for Test of LAE sporicidal activity (Na), surviving spores count: 0.3% bovine serum albumin, N 1.8 × 10^7 cfu/mL
Description: The determination of the sporicidal activity of LAE has been carried out according to the European standard EN 13704:2002 “Chemical disinfectant—Quantitative suspension test for the evaluation of sporicidal activity of chemical disinfectants used in food, industrial, domestic and institutional areas—Test method and requirements”.
(§1) A test suspension containing endospores from Bacillus subtilis ATCC 6633 was prepared from a culture grown on a nutrient agar, to which additional sporulation enhancement ingredients were added. Plates were harvested with sterile water and endospores were purified by repeated centrifugations and resuspensions in water.
Neutralizer. The neutralizer mixture consisted of 12.7% polysorbate 80, 6.0% Tamol® SN (brand of sodium salt of naphthalene-formaldehyde condensate), 1.7% lecithin, 1% peptone and 0.1% cystine. The solution was intended to neutralize any chemicals so that these would not affect subsequent growth of the bacteria.
The sporicidal activity of a given product is defined by its capacity to reduce at least by 10^3 the amount of Bacillus subtilis bacterial spores in suspension, in the conditions established in the method.
(§2) The product was in contact with a suspension of bacterial spores during an established period of time of 60 minutes. An interfering substance can be added to the suspension, in this case 0.3% bovine serum albumin in distilled water. Next, the effect of the product is neutralized by adding a neutralizer previously chosen, preceding to the surviving spores count.
• 1. Spore suspension obtained from a spored-form culture of Bacillus subtilis. • 2. Count of the spore suspension of Bacillus subtilis. • 3. The possible toxic effect of the neutralizer on the spores in the absence of the product is valued. • 4. Evaluation of the neutralizing effect of the neutralizer over the product. • 4. Evaluation of the inhibitory effect of the product. • 5. Result calculation. Results: Results are expressed as the reduction of viability of the spore suspension in regards to:
Tabulation of the Method and Test Validation Results (at 20° C.):
The sporicidal activity is calculated as follows: R=N×0.1/Na N is cfu/mL of the spore suspension. Na is cfu/mL of the sporicidal activity. The calculated reduction of a solution of: • 50 ppm of LAE is R=3.5×10^2 cfu/mL • 100 ppm of LAE is R=3.4×10^2 cfu/mL • 150 ppm of LAE is R=4.3×10^2 cfu/mL • 250 ppm of LAE is R>10^3 cfu/mL
A product is considered sporicidal if its use results in a reduction in the number of Bacillus subtilis bacterial spores equal or above 10^3 after being in contact for 60 minutes in the conditions set in […].

[2] = system: endospores from Geobacillus stearothermophilus ATCC 12980; assay: Sporicidal activity, quantitative suspension test EN 13704:2002 (Example 3); type: cell-based; details: 40° C.; for calculated reduction (R) R=N×0.1/Na: 60 minutes; for Test of LAE sporicidal activity (Na), surviving spores count: water as interfering substance, N 1.3 × 10^6 cfu/mL
Description: The determination of the sporicidal activity of LAE has been carried out according to the European standard EN 13704:2002: “Chemical disinfectant—Quantitative suspension test for the evaluation of sporicidal activity of chemical disinfectants used in food, industrial, domestic and institutional areas—Test method and requirements”.
as §1, with “Geobacillus stearothermophilus” for “Bacillus subtilis”, “12980” for “6633”
Neutralizer. The neutralizer mixture consisted of 30 g/L polysorbate 80 in water. The solution was intended to neutralize any chemicals so that these would not affect subsequent growth of the bacteria.
The sporicidal activity of a given product is defined by its capacity to reduce at least by 10^3 the amount of Geobacillus stearothermophilus bacterial spores in suspension, in the conditions established in the method.
as §2, with “case” for “case 0.3% bovine serum albumin in distilled”
• 1. Spore suspension obtained from a spored-form culture of Geobacillus stearothermophilus • 2. Count of the spore suspension of Geobacillus stearothermophilus. • 3. The possible toxic effect of the neutralizer on the spores in the absence of the product is valued. • 4. Validation of the dilution-neutralisation method. • 5. Evaluation of the inhibitory sporicide effect of the product. • 6. Result calculation. Results: Results are expressed as the reduction of viability of the spore suspension in regards to:
Tabulation of the Method and Test Validation Results (at 40° C.): […]

[3] = system: Micrococcus luteus ATCC 9631; details: Gram + Bacteria; cited from earlier work
[4] = system: Bordetella bronchiseptica ATCC 4617; details: Gram − Bacteria; cited from earlier work
[5] = system: Enterobacter aerogenes CECT 689; details: Gram − Bacteria; cited from earlier work
Escherichia coli 0157H7 = details: Gram − Bacteria; cited from earlier work
[6] = system: Klebsiella pneumoniae var pneumoniae CECT 178; details: Gram − Bacteria; cited from earlier work
[7] = system: Proteus mirabilis CECT 170; details: Gram − Bacteria; cited from earlier work
[8] = system: Pseudomonas aeruginosa ATCC 9027; details: Gram − Bacteria; cited from earlier work
[9] = system: Aspergillus niger ATCC 14604; details: Fungi; cited from earlier work
[10] = system: Aureobasidium pullulans ATCC 9348; details: Fungi; cited from earlier work
[11] = system: Chaetonium globosum ATCC 6205; details: Fungi; cited from earlier work
[12] = rats; cited from earlier work

CCCCCCCCCCCC(=O)N[C@@H](CCCN=C(N)N)C(=O)OCC.Cl [LAE, ethyl ester of the lauramide of the arginine monohydrochloride]
calculated reduction R=N×0.1/Na ([1]; 50 ppm of LAE, 60 minutes): 3.5×10^2 cfu/mL | calculated reduction R=N×0.1/Na ([1]; 100 ppm of LAE, 60 minutes): 3.4×10^2 cfu/mL | calculated reduction R=N×0.1/Na ([1]; 150 ppm of LAE, 60 minutes): 4.3×10^2 cfu/mL | calculated reduction R=N×0.1/Na ([1]; 250 ppm of LAE, 60 minutes): > 10^3 cfu/mL | concentration displaying sporicidal activity (reduction equal or above 10^3) ([1]; 60 minutes contact, EN 13704): ≥ 250 ppm | LAE concentration from which there is inhibition of spore germination ([1]; 60 minutes): ≥ 50 ppm | Test of LAE sporicidal activity (Na), surviving spores count ([1]; LAE 12.5 μg/mL, 60 minutes contact): >300 cfu/mL | Test of LAE sporicidal activity (Na), surviving spores count ([1]; LAE 25 μg/mL, 60 minutes contact): >300 cfu/mL | Test of LAE sporicidal activity (Na), surviving spores count ([1]; LAE 50 μg/mL, 60 minutes contact): 5.2 × 10^3 cfu/mL | Test of LAE sporicidal activity (Na), surviving spores count ([1]; LAE 100 μg/mL, 60 minutes contact): 5.3 × 10^3 cfu/mL | Test of LAE sporicidal activity (Na), surviving spores count ([1]; LAE 150 μg/mL, 60 minutes contact): 4.2 × 10^3 cfu/mL | Test of LAE sporicidal activity (Na), surviving spores count ([1]; LAE 250 μg/mL, 60 minutes contact): No | Test of LAE sporicidal activity (Na), surviving spores count ([1]; LAE 300 μg/mL, 60 minutes contact): No | calculated reduction (R) R=N×0.1/Na ([2]; 58 μg/ml of LAE): < 10^3 cfu/mL | calculated reduction (R) R=N×0.1/Na ([2]; 115 μg/ml of LAE): < 10^3 cfu/mL | calculated reduction (R) R=N×0.1/Na ([2]; 173 μg/ml of LAE): > 10^3 cfu/mL | calculated reduction (R) R=N×0.1/Na ([2]; 230 μg/ml of LAE): > 10^3 cfu/mL | calculated reduction (R) R=N×0.1/Na ([2]; 460 μg/ml of LAE): > 10^3 cfu/mL | concentration displaying sporicidal activity (reduction equal to or above 10^3) ([2]; 60 minutes contact, EN 13704:2002): ≥ 173 μg/ml | Test of LAE sporicidal activity (Na), surviving spores count ([2]; LAE 58 μg/mL, 60 minutes contact): 1.0 × 10^5 cfu/mL | Test of LAE sporicidal activity (Na), surviving spores count ([2]; LAE 115 μg/mL, 60 minutes contact): 5.2 × 10^4 cfu/mL | Test of LAE sporicidal activity (Na), surviving spores count ([2]; LAE 173 μg/mL, 60 minutes contact): <10^2 cfu/mL | Test of LAE sporicidal activity (Na), surviving spores count ([2]; LAE 230 μg/mL, 60 minutes contact): <10^2 cfu/mL | Test of LAE sporicidal activity (Na), surviving spores count ([2]; LAE 460 μg/mL, 60 minutes contact): <10^2 cfu/mL | M.I.C. [3]: 128 ppm | M.I.C. [4]: 128 ppm | M.I.C. [5]: 32 ppm | M.I.C. (Escherichia coli 0157H7): 20 ppm | M.I.C. [6]: 32 ppm | M.I.C. [7]: 32 ppm | M.I.C. [8]: 64 ppm | M.I.C. [9]: 32 ppm | M.I.C. [10]: 16 ppm | M.I.C. [11]: 16 ppm | absorption and metabolism [12]: fast absorption and metabolization into naturally-occurring amino acids and the fatty acid lauric acid, which are eventually excreted as carbon dioxide and urea
